Publication PMC5094189 (Journal of the American Chemical Society, 2016)

Key:
[1] = system: U937 human histiocytic lymphoma cells; settings: cited from earlier work
[2] = system: U937 human histiocytic lymphoma cells; settings: cited from earlier work; remark: listed apart in the source
[3] = system: TNFα secretion from U937 cells; assay: TNFα secretion from U937 cells; type: cell-based, human; settings: treatment for 60 hours
Toledo cells = assay: Toledo cell growth assay; type: cell-based

SMILES | behavior in U937 promyelocytic leukemia cells [1] | effect on attachment of U937 cells [2] | TNFα secretion [3] | effect on proliferation of U937 cells [1] | growth inhibition of Toledo cells (Toledo cells)
COC(=O)/C=C1\C[C@H]2C[C@]3(O)O[C@H](C[C@@H](O)CC(=O)O[C@@H](C)[C@H](O)C[C@@H]4C[C@@H]5CC(=O)O[C@]5(O4)C(=O)C(C)(C)/C=C/[C@@H](C1)O2)C[C@H](OC(=O)C(C)(C)C)C3(C)C [Neristatin 1] | bryostatin 1-like behavior | – | – | – | –
CCC/C=C/C=C/C(=O)O[C@H]1/C(=C/C(=O)OC)C[C@H]2C[C@H]([C@@H](C)O)OC(=O)C[C@H](O)C[C@@H]3C[C@H](OC(C)=O)C(C)(C)[C@](O)(C[C@@H]4C/C(=C/C(=O)OC)C[C@H](/C=C/C(C)(C)[C@]1(O)O2)O4)O3 [bryostatin 1] | – | little response | little effect | little response | induce antiproliferative responses
CCCCCCCCCCCCCC(=O)O[C@@H]1[C@@H](C)[C@@]2(O)[C@@H](C=C(CO)C[C@]3(O)C(=O)C(C)=C[C@@H]23)[C@@H]2C(C)(C)[C@]12OC(C)=O [PMA, phorbol 12-myristate 13-acetate] | – | promotes attachment | induces secretion in a dose-dependent manner | inhibits the proliferation | induce antiproliferative responses
